Reference: PMC10845951, “Characterization of a selective, iron-chelating antifungal compound that disrupts fungal metabolism and synergizes with fluconazole” (Microbiology Spectrum, 2024)

Test system: C. glabrata gene expression
Assay: RNA sequencing (gene regulation)
Assay type: cell-based, Candida glabrata
Settings: for Log2 Fold-Change: vs DMSO; for Regulation Status: 26CvsDMSO
Protocol: Cells from overnight precultures in YPD medium were reinoculated in fresh YNB −iron medium (see “Culture maintenance” for contents) without iron and grown until OD600 of 0.4. […] Cells were collected from three independent experiments, snap frozen, and stored at −80°C. Total RNA purification was performed as previously described using the RNeasy Mini Kit (74104, Qiagen), and gDNA removal was made using the RNase-Free DNase Set kit (79254, Qiagen). RNA quantification and quality control were done with a Tape Station 4150 (Agilent) ([59]).
Library preparation and sequencing were performed at GenomEast (IGBMC, Illkirch, France). One DMSO 0.05% sample was excluded from the analysis due to insufficient quality. The library was sequenced on Illumina Hiseq 4000 sequencer as single-read 50-base reads following Illumina’s instructions. Reads were pre-processed in order to remove adapter, polyA, and low-quality sequences (Phred quality score below 20). Reads shorter than 40 bases were discarded from further analysis. These pre-processing steps were performed using cutadapt version 1.10 ([60]). Image analysis and base calling were performed using RTA 2.7.7 and bcl2fastq2.17.1.14. Adapter dimer reads were removed using DimerRemover (https://sourceforge.net/projects/dimerremover/). The quality of the RNAseq reads was examined using FastQC 0.11.2 (http://www.bioinformatics.babraham.ac.uk/projects/fastqc/) and FastQScreen 0.5.1 (https://www.bioinformatics.babraham.ac.uk/projects/fastq_screen/). Reads were mapped onto the ASM254v2 assembly of Candida glabrata genome using STAR version 2.5.3a ([61]). Gene expression quantification was performed from uniquely aligned reads using htseq-count version 0.6.1p1 ([62]), with annotations from Ensembl fungi version 50 and union mode. Only non-ambiguously assigned reads have been retained for further analyses. Read counts were normalized across samples with the median-of-ratios method ([63]). Comparisons were implemented in the Bioconductor package DESeq2 version 1.16.1 using the test for differential expression ([64]). Genes with no P-value corresponded to genes with high Cook’s distance that were filtered out. P-values were adjusted for multiple testing using the Benjamini and Hochberg method ([65]). Genes with no adjusted P-value correspond to genes filtered out in the independent filtering step in order to remove reads from genes that have no or little chance of showing evidence of significant differential expression.

## c1ccc(-c2cccc(-c3ccccn3)n2)nc1 [2,2′:6′,2′′-terpyridine]
TSA1 CAGL0K06259g
  Log2 Fold-Change: 1.052
ZPR1 CAGL0K00759g
  Log2 Fold-Change: 0.6092
Gene CAGL0F07029g MET13
  Regulation Status: Downregulated
Gene CAGL0F07513g
  Regulation Status: Downregulated
Gene CAGL0F08481g
  Regulation Status: Downregulated
Gene CAGL0F08503g
  Regulation Status: Downregulated
Gene CAGL0F09163g
  Regulation Status: Downregulated
Gene CAGL0G01903g MET1
  Regulation Status: Downregulated
Gene CAGL0G02695g
  Regulation Status: Downregulated
Gene CAGL0G03619g
  Regulation Status: Downregulated
Gene CAGL0G03861g
  Regulation Status: Downregulated
Gene CAGL0G03883g
  Regulation Status: Downregulated
Gene CAGL0G03905g
  Regulation Status: Downregulated
Gene CAGL0G06050g
  Regulation Status: Downregulated
Gene CAGL0G06402g
  Regulation Status: Downregulated
Gene CAGL0G06600g
  Regulation Status: Downregulated
Gene CAGL0G06732g
  Regulation Status: Downregulated
Gene CAGL0G07711g
  Regulation Status: Downregulated
Gene CAGL0G08712g KGD1
  Regulation Status: Downregulated
Gene CAGL0G09581g
  Regulation Status: Downregulated
Gene CAGL0G10131g
  Regulation Status: Downregulated
Gene CAGL0G10153g
  Regulation Status: Downregulated
Gene CAGL0H02365g
  Regulation Status: Downregulated
Gene CAGL0H02491g
  Regulation Status: Downregulated
Gene CAGL0H02541g
  Regulation Status: Downregulated
Gene CAGL0H03531g MNP1
  Regulation Status: Downregulated
Gene CAGL0H03795g LEU2
  Regulation Status: Downregulated
Gene CAGL0H03993g CIT1
  Regulation Status: Downregulated
Gene CAGL0H05775g
  Regulation Status: Downregulated
Gene CAGL0H05797g
  Regulation Status: Downregulated
Gene CAGL0H06732g
  Regulation Status: Downregulated
Gene CAGL0H06743g
  Regulation Status: Downregulated
Gene CAGL0H07023g
  Regulation Status: Downregulated
Gene CAGL0H08283g HSP10
  Regulation Status: Downregulated
Gene CAGL0H09306g
  Regulation Status: Downregulated
Gene CAGL0H09328g
  Regulation Status: Downregulated
Gene CAGL0H10076g
  Regulation Status: Downregulated
Gene CAGL0I00924g
  Regulation Status: Downregulated
Gene CAGL0I01276g
  Regulation Status: Downregulated
Gene CAGL0I01298g
  Regulation Status: Downregulated
Gene CAGL0I01408g CYC1
  Regulation Status: Downregulated
Gene CAGL0I01496g
  Regulation Status: Downregulated
Gene CAGL0I01848g
  Regulation Status: Downregulated
Gene CAGL0I02728g
  Regulation Status: Downregulated
Gene CAGL0I03190g RIP1
  Regulation Status: Downregulated
Gene CAGL0I04180g AMT1
  Regulation Status: Downregulated
Gene CAGL0I04994g MET6
  Regulation Status: Downregulated
Gene CAGL0I05280g
  Regulation Status: Downregulated
Gene CAGL0I05698g
  Regulation Status: Downregulated
Gene CAGL0I06270g
  Regulation Status: Downregulated
Gene CAGL0I06644g
  Regulation Status: Downregulated
Gene CAGL0I06831g
  Regulation Status: Downregulated
Gene CAGL0I06985g
  Regulation Status: Downregulated
Gene CAGL0I07969g
  Regulation Status: Downregulated
Gene CAGL0I08305g
  Regulation Status: Downregulated
Gene CAGL0I08503g
  Regulation Status: Downregulated
Gene CAGL0I08767g
  Regulation Status: Downregulated
Gene CAGL0I09009g
  Regulation Status: Downregulated
Gene CAGL0I09262g
  Regulation Status: Downregulated
Gene CAGL0I09812g
  Regulation Status: Downregulated
Gene CAGL0I10923g
  Regulation Status: Downregulated
Gene CAGL0J00429g COX6
  Regulation Status: Downregulated
Gene CAGL0J00847g SDH1
  Regulation Status: Downregulated
Gene CAGL0J01463g
  Regulation Status: Downregulated
Gene CAGL0J01699g
  Regulation Status: Downregulated
Gene CAGL0J02090g
  Regulation Status: Downregulated
Gene CAGL0J03806g
  Regulation Status: Downregulated
Gene CAGL0J04026g
  Regulation Status: Downregulated
Gene CAGL0J04268g
  Regulation Status: Downregulated
Gene CAGL0J04554g
  Regulation Status: Downregulated
Gene CAGL0J04884g
  Regulation Status: Downregulated
Gene CAGL0J05302g
  Regulation Status: Downregulated
Gene CAGL0J06380g
  Regulation Status: Downregulated
Gene CAGL0J06490g
  Regulation Status: Downregulated
Gene CAGL0J06820g
  Regulation Status: Downregulated
Gene CAGL0J08316g
  Regulation Status: Downregulated
Gene CAGL0J09680g
  Regulation Status: Downregulated
Gene CAGL0J09790g
  Regulation Status: Downregulated
Gene CAGL0J11484g DUG3
  Regulation Status: Downregulated
Gene CAGL0J11682g
  Regulation Status: Downregulated
Gene CAGL0K00110g AWP2
  Regulation Status: Downregulated
Gene CAGL0K02409g
  Regulation Status: Downregulated
Gene CAGL0K02893g
  Regulation Status: Downregulated
Gene CAGL0K03663g
  Regulation Status: Downregulated
Gene CAGL0K04279g SCM4
  Regulation Status: Downregulated
Gene CAGL0K06677g MET8
  Regulation Status: Downregulated
Gene CAGL0K06853g
  Regulation Status: Downregulated
Gene CAGL0K07315g
  Regulation Status: Downregulated
Gene CAGL0K07678g
  Regulation Status: Downregulated
Gene CAGL0K08184g CCP1
  Regulation Status: Downregulated
Gene CAGL0K08668g MET28
  Regulation Status: Downregulated
Gene CAGL0K08800g ADI1
  Regulation Status: Downregulated
Gene CAGL0K09218g
  Regulation Status: Downregulated
Gene CAGL0K10120g
  Regulation Status: Downregulated
Gene CAGL0K10868g CTA1
  Regulation Status: Downregulated
Gene CAGL0K10956g
  Regulation Status: Downregulated
Gene CAGL0K10978g
  Regulation Status: Downregulated
Gene CAGL0K12100g
  Regulation Status: Downregulated
Gene CAGL0K12958g
  Regulation Status: Downregulated
Gene CAGL0L00429g
  Regulation Status: Downregulated
Gene CAGL0L00759g HIS1
  Regulation Status: Downregulated
Gene CAGL0L00803g
  Regulation Status: Downregulated
